Reference: article PMC8597757, “Pharmacokinetic and Safety Profile of the Novel HIV Nonnucleoside Reverse Transcriptase Inhibitor MK-8507 in Adults without HIV” (Antimicrobial Agents and Chemotherapy, 2021)
Entries after “also recorded” stand apart in the source; their conditions may differ. Where two headings read alike, the source gives them in different places.

How the values were obtained:
[1] = Safety and tolerability in phase 1 studies; type: in vivo, human
Procedure: The safety and tolerability of MK-8507 were assessed by clinical evaluation, including vital signs, 12-lead electrocardiograms, laboratory safety tests, and clinical monitoring of AEs.

HIV-1 = experiment: PK target of Ctrough >=6 x IC50 (in vitro potency); settings: Human immunodeficiency virus 1; Ctrough target expected to achieve antiviral efficacy; meta-analysis ref 20; read-out: 6 × IC50 threshold (PK target for C168hr)
Procedure: The plasma PK profile of MK-8507 is supportive of QW administration. Following oral administration, MK-8507 is readily absorbed, with a Tmax of ∼2 to 7 h followed by a biphasic decline in plasma concentration. […] Concentration at trough is the PK parameter generally associated with antiviral efficacy of HIV treatment ([20][–][23]). Based on a meta-analysis of Ctrough normalized by in vitro potency and viral load data from other NNRTIs ([20]), a PK target of Ctrough ≥6 × 50% inhibitory concentration (IC50) is a threshold expected to achieve antiviral efficacy as part of combination therapy. […] These PK results support further development of MK-8507 as a QW oral agent for treatment of HIV administered as part of a complete treatment regimen together with islatravir.

[2] = tested on: common NNRTI resistance-associated variants; settings: cited from earlier work
[3] = Single-dose plasma pharmacokinetics of MK-8507 (suspension, study 1; tablet, study 2); type: in vivo; settings: human, fasted; for AUC(0-inf): n=6, read-out: AUC0-∞ (geometric mean [95% CI]); for AUC(0-t): n=6, read-out: AUC0–168 (geometric mean [95% CI]); for half-life: n=6, read-out: Apparent terminal t½ (geometric mean [%GVC]) (converted); for concentration at 168 h: n=6, read-out: C168hr (geometric mean [95% CI]); for Cmax: n=6, read-out: Cmax (geometric mean [95% CI])
[4] = Dose proportionality assessment of single oral doses 2 to 1,200 mg; type: in vivo, human
Excerpt: The AUC0-168hr and […] group was not statistically significant at the 0.05 level and was therefore omitted from the final model. An overall slope was estimated across all groups.

CYP3A4 = settings: preclinical in vitro studies, no reference given; cited from earlier work
[5] = Cross-study formulation comparison, 400 mg tablet vs suspension; type: in vivo, human
Procedure: Statistical analyses were performed using SAS software version 9.3 (SAS Institute Inc., Cary, NC, USA). […] The least-squares geometric mean (GM) and corresponding 95% CIs obtained from the models were exponentiated to provide estimates for the population GMs and CIs on the original scales. To assess the effect of food, 90% CIs were calculated for the GMR (fed/fasted) of MK-8507 AUC0-∞, Cmax, and C168hr. […] The point estimates and the corresponding 95% CIs were obtained from the model for GM of each formulation; the GMR and 90% CIs comparing tablet to suspension were estimated using the model.

[6] = po, 2 mg, single oral dose 2 mg, suspension
[7] = po, 10 mg, single oral dose 10 mg, suspension
[8] = po, 30 mg, single oral dose 30 mg, suspension
[9] = po, 100 mg, single oral dose 100 mg, suspension
[10] = po, 200 mg, single oral dose 200 mg, suspension
[11] = po, 400 mg, single oral dose 400 mg, suspension
[12] = po, 400 mg, single oral dose 400 mg, tablet
[13] = po, 800 mg, single oral dose 800 mg, tablet
[14] = po, 1200 mg, single oral dose 1,200 mg, tablet

N#Cc1cc(Cl)cc(Oc2c(C(F)(F)F)ncn(Cc3cc(C(F)(F)F)c(=O)[nH]n3)c2=O)c1 [MK-8507]
changes in clinical laboratory assessments, vital signs, electrocardiograms ([1]; both studies): no clinically meaningful changes; also recorded: No clinically meaningful relationships were observed | discontinuation due to an adverse experience ([1]; both studies): no participants discontinued | seriousness and intensity of adverse events ([1]; both studies): nonserious and mild in intensity | tolerability ([1]; single and multiple QW doses): generally well tolerated | participants with cough ([1]; study 1): 3 | participants with headache ([1]; study 1): 4 | participants with myalgia ([1]; study 1): 2 | participants with rhinorrhea ([1]; study 1): 2 | AEs considered related to MK-8507 ([1]; study 1, single dose): none | total nonserious AEs ([1]; study 1, single oral dose of MK-8507): 38 | AEs considered related to MK-8507 ([1]; study 2, multiple doses): none | total nonserious AEs ([1]; study 2, multiple doses of MK-8507): 13 | AEs considered related to MK-8507 ([1]; study 2, single doses (decreased appetite)): One | total nonserious AEs ([1]; study 2, single doses of MK-8507): 10 | IC50 (HIV-1): 0.148 µg/mL | PK target concentration for C168hr (6 × IC50) (HIV-1): 300 nM | in vitro activity against common NNRTI resistance-associated variants [2]: demonstrated in vitro activity | Tmax ([3]; oral, tablet, range across doses, read-out: median Tmax): 4 to 7 h | AUC(0-inf) [3, 6]: 3.82 µM·h | AUC(0-t) [3, 6]: 2.94 µM·h | half-life [3, 6]: 82.9 h | concentration at 168 h [3, 6]: 10 nM | Tmax ([3]; po, 2 mg, single oral dose 2 mg, suspension, n=6, read-out: Tmax (median [min, max])): 2 h | AUC(0-t) [3, 7]: 11.9 µM·h | half-life [3, 7]: 82 h | concentration at 168 h [3, 7]: 30 nM | Tmax ([3]; po, 10 mg, single oral dose 10 mg, suspension, n=6, read-out: Tmax (median [min, max])): 2 h | AUC(0-inf) [3, 8]: 52 µM·h | half-life [3, 8]: 77.7 h | Cmax [3, 8]: 790 nM | AUC(0-inf) [3, 9]: 175 µM·h | AUC(0-t) [3, 9]: 139 µM·h | half-life [3, 9]: 75.9 h | concentration at 168 h [3, 9]: 300 nM | Cmax [3, 9]: 2580 nM | AUC(0-inf) [3, 10]: 374 µM·h | half-life [3, 10]: 83.5 h | concentration at 168 h [3, 10]: 680 nM | Cmax [3, 10]: 5400 nM | Tmax ([3]; po, 200 mg, single oral dose 200 mg, suspension, n=6, read-out: Tmax (median [min, max])): 2.02 h | AUC(0-inf) [3, 11]: 770 µM·h | AUC(0-t) [3, 11]: 619 µM·h | half-life [3, 11]: 69.1 h | Tmax ([3]; po, 400 mg, single oral dose 400 mg, suspension, n=6, read-out: Tmax (median [min, max])): 4 h | AUC(0-inf) [3, 12]: 710 µM·h | AUC(0-t) [3, 12]: 606 µM·h | half-life [3, 12]: 58.3 h | concentration at 168 h [3, 12]: 1280 nM | Cmax [3, 12]: 9090 nM | Tmax ([3]; po, 400 mg, single oral dose 400 mg, tablet, n=6, read-out: Tmax (median [min, max])): 7 h | AUC(0-inf) [3, 13]: 1230 µM·h | AUC(0-t) [3, 13]: 989 µM·h | half-life [3, 13]: 70.9 h | concentration at 168 h [3, 13]: 2100 nM | Cmax [3, 13]: 15400 nM | Tmax ([3]; po, 800 mg, single oral dose 800 mg, tablet, n=6, read-out: Tmax (median [min, max])): 4 h | AUC(0-inf) [3, 14]: 1920 µM·h | AUC(0-t) [3, 14]: 1570 µM·h | half-life [3, 14]: 68.7 h | concentration at 168 h [3, 14]: 3590 nM | Cmax [3, 14]: 23600 nM | Tmax ([3]; po, 1200 mg, single oral dose 1,200 mg, tablet, n=6, read-out: Tmax (median [min, max])): 5 h | dose proportionality of pharmacokinetics ([4]; 2 to 1,200 mg): increased dose proportionally; also recorded: approximately dose proportional | Estimate of slope, C168hr as a function of dose ([4]; single oral doses of 2 to 1,200 mg, ln-ln linear mixed-effect model): 0.9932 | induction of CYP3A4 expression in vitro (CYP3A4): demonstrated the potential to induce expression of CYP3A4 | reduction of Cmax, tablet compared to suspension ([5]; 400-mg dose): 21% | GMR (90% CI) tablet/suspension, C168hr ([5]; 400-mg single dose): 0.93 (0.66, 1.29)
